Laboratory results: BindingDB's records for doi:10.1016/j.bmcl.2014.06.001 (Tohoku Pharmaceutical University, 2014)

Test: Inhibition of Wistar rat intestinal maltase assessed as inhibition of D-glucose release after 30 mins by spectrophotometry

IC50: 170 nM
SMILES: OC[C@@H]1N[C@@H](CCCCc2ccc(O)cc2)[C@H](O)[C@H]1O
